BigSolDB 2.1

Work on `CC(=O)N1CN(C(C)=O)CN(C(C)=O)C1` yielded a solubility (mole fraction) (in acetonitrile, 298 K) of 0.0478, a solubility (mole fraction) (in acetonitrile, 303 K) of 0.0695 and a solubility (mole fraction) (in acetonitrile, 308 K) of 0.102. For the same compound, the solubility (mole fraction) (in acetonitrile, 313 K) was 0.142, the solubility (mole fraction) (in acetonitrile, 318 K) was 0.202 and the solubility (mole fraction) (in ethyl acetate, 298 K) was 0.0153. It also gave a solubility (mole fraction) (in ethyl acetate, 303 K) of 0.0178, a solubility (mole fraction) (in ethyl acetate, 308 K) of 0.0198 and a solubility (mole fraction) (in ethyl acetate, 313 K) of 0.0236. The solubility (mole fraction) (in ethyl acetate, 318 K) was 0.0271, the solubility (mole fraction) (in methanol, 298 K) was 0.204 and the solubility (mole fraction) (in methanol, 303 K) was 0.238. For the same compound, the solubility (mole fraction) (in methanol, 308 K) was 0.283, the solubility (mole fraction) (in methanol, 313 K) was 0.335 and the solubility (mole fraction) (in methanol, 318 K) was 0.395. It also gave a solubility (mole fraction) (in water, 298 K) of 0.00434, a solubility (mole fraction) (in water, 303 K) of 0.00612 and a solubility (mole fraction) (in water, 308 K) of 0.0085. It also gave a solubility (mole fraction) (in water, 313 K) of 0.0125 and a solubility (mole fraction) (in water, 318 K) of 0.018.
